The results in this text go back to patent US10206394B2, “Herbicidal compounds” (Syngenta Participations AG, priority 2014, dated 2019).

Common to all, as to experiment: Glasshouse assay for herbicidal activity (pre- and post-emergence), percentage phytotoxicity
Assay type in all cases: in vivo

In one assay the test system is Avena fatua (AVEFA). The following applies: Avena fatua; for pest or weed control at 250 g/ha: visual assessment (100%=total damage, 0%=no damage). In a few lines:
(§1)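 Visual phytotoxicity score, 0% = undamaged to 100% = total kill, read 20 days after treatment for PRE and 15 days for POST. Pots of standard soil; treatment at day 1 (PRE) or roughly day 12 (POST). Glasshouse: 16 h photoperiod, 65% RH, 24/18 or 20/16 °C by climate type.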

Assay [1] has as its system Echinochloa crus-galli (ECHCG). The following applies: Echinochloa crus-galli; for pest or weed control at 250 g/ha: visual assessment (100%=total damage, 0%=no damage). In a few lines:
as §1

Assay [2] relates to Alopecurus myosuroides (ALOMY). The following applies: Alopecurus myosuroides; for pest or weed control at 250 g/ha: visual assessment (100%=total damage, 0%=no damage). In outline:
as §1

Another assay deals with Lolium perenne (LOLPE). The following applies: Lolium perenne; for pest or weed control at 250 g/ha: visual assessment (100%=total damage, 0%=no damage). In outline: as §1
The mark [3] stands for this setting: post-emergence, 360 h, post-emergence, 15 DAA, read-out: Post-emergence herbicidal activity (percentage phytotoxicity) AVEFA POST.
[4] abbreviates: pre-emergence, 480 h, pre-emergence, 20 DAA, read-out: Pre-emergence herbicidal activity (percentage phytotoxicity) AVEFA PRE.
[5] abbreviates: post-emergence, 360 h, post-emergence, 15 DAA, read-out: Post-emergence herbicidal activity (percentage phytotoxicity) ECHCG POST.
Setting [6] is: pre-emergence, 480 h, pre-emergence, 20 DAA, read-out: Pre-emergence herbicidal activity (percentage phytotoxicity) ECHCG PRE.
Where [7] appears, read: post-emergence, 360 h, post-emergence, 15 DAA, read-out: Post-emergence herbicidal activity (percentage phytotoxicity) ALOMY POST.
Where [8] appears, read: pre-emergence, 480 h, pre-emergence, 20 DAA, read-out: Pre-emergence herbicidal activity (percentage phytotoxicity) ALOMY PRE.
[9] abbreviates: post-emergence, 360 h, post-emergence, 15 DAA, read-out: Post-emergence herbicidal activity (percentage phytotoxicity) LOLPE POST.
Where [10] appears, read: pre-emergence, 480 h, pre-emergence, 20 DAA, read-out: Pre-emergence herbicidal activity (percentage phytotoxicity) LOLPE PRE.

Read-outs that look alike come from different tables or passages of the source.

As to `C#CC(C)(C)NC(=O)CC1CC(=O)C(c2c(C)cc(-c3ncc(Cl)cc3F)cc2C)C1=O` (stereo not drawn) [Compound B126], the pest or weed control at 250 g/ha came to 100% with Avena fatua (AVEFA) (setting [3]); 90% in the assay on Avena fatua (AVEFA) (setting [4]); 100% in assay [1] (setting [5]); 100% in assay [1] (setting [6]); 100% in assay [2] (setting [7]); 100% in assay [2] (setting [8]). For the same compound, the pest or weed control at 250 g/ha with Lolium perenne (LOLPE) (setting [9]) and with Lolium perenne (LOLPE) (setting [10]) was 100% in each case.
Regarding `C#CC(C)(C)NC(=O)CC1CC(=O)C(c2c(C)cc(Br)cc2C)C1=O` (stereo not drawn) [Compound B127], the pest or weed control at 250 g/ha in the assay on Avena fatua (AVEFA) (setting [3]) is 100%; in the assay with Avena fatua (AVEFA) (setting [4]) it was 80%; in assay [1] (setting [5]), 100%; in assay [1] (setting [6]) it was 70%; in assay [2] (setting [7]), 90%; in assay [2] (setting [8]), 90%. Further, the pest or weed control at 250 g/ha in the assay with Lolium perenne (LOLPE) (setting [9]) is 90%; in the assay with Lolium perenne (LOLPE) (setting [10]), 70%.
`COCCCNC(=O)CC1CC(=O)C(c2c(C)cc(-c3ncc(Cl)cc3F)cc2C)C1=O` (stereo not drawn) [Compound B128]: the pest or weed control at 250 g/ha (in the assay on Avena fatua (AVEFA) (setting [3]); in the assay on Avena fatua (AVEFA) (setting [4]); in assay [1] (setting [5]); in assay [1] (setting [6]); in assay [2] (setting [7]); in assay [2] (setting [8])) was 100% each time. Also, the pest or weed control at 250 g/ha in the assay with Lolium perenne (LOLPE) (setting [9]) and in the assay on Lolium perenne (LOLPE) (setting [10]) was 100% throughout.
In the case of `Cc1cc(-c2ncc(Cl)cc2F)cc(C)c1C1C(=O)CC(CC(=O)NCc2cccc(F)c2)C1=O` (stereo not drawn) [Compound B129], the pest or weed control at 250 g/ha in the assay on Avena fatua (AVEFA) (setting [3]) came to 100%; in the assay on Avena fatua (AVEFA) (setting [4]), 50%; in assay [1] (setting [5]), 100%; in assay [1] (setting [6]) it was 70%; in assay [2] (setting [7]), 100%; in assay [2] (setting [8]) it was 90%. For the same compound, the pest or weed control at 250 g/ha came out at 100% in the assay with Lolium perenne (LOLPE) (setting [9]) and 90% with Lolium perenne (LOLPE) (setting [10]).
On to `Cc1cc(Br)cc(C)c1C1C(=O)CC(CC(=O)NCc2cccc(F)c2)C1=O` (stereo not drawn) [Compound B130], for which the pest or weed control at 250 g/ha was 90% with Avena fatua (AVEFA) (setting [3]); 40% in the assay on Avena fatua (AVEFA) (setting [4]); 90% in assay [1] (setting [5]); 70% in assay [1] (setting [6]); 90% in assay [2] (setting [7]); 80% in assay [2] (setting [8]). In addition, the pest or weed control at 250 g/ha with Lolium perenne (LOLPE) (setting [9]) worked out at 100%; in the assay on Lolium perenne (LOLPE) (setting [10]) it was 80%.
As for `COc1cccc(CNC(=O)CC2CC(=O)C(c3c(C)cc(-c4ncc(Cl)cc4F)cc3C)C2=O)c1` (stereo not drawn) [Compound B131], the pest or weed control at 250 g/ha with Avena fatua (AVEFA) (setting [3]) was 100%; in the assay with Avena fatua (AVEFA) (setting [4]), 30%; in assay [1] (setting [5]) it was 100%; in assay [1] (setting [6]), 90%; in assay [2] (setting [7]) it was 90%; in assay [2] (setting [8]) it was 80%. Further, the pest or weed control at 250 g/ha with Lolium perenne (LOLPE) (setting [9]) was 90%; in the assay on Lolium perenne (LOLPE) (setting [10]) it was 80%.
Consider `COc1cccc(CNC(=O)CC2CC(=O)C(c3c(C)cc(Br)cc3C)C2=O)c1` (stereo not drawn) [Compound B132], for which the pest or weed control at 250 g/ha with Avena fatua (AVEFA) (setting [3]) was 20%; in the assay on Avena fatua (AVEFA) (setting [4]), 30%; in assay [1] (setting [5]) it was 80%; in assay [1] (setting [6]), 20%; in assay [2] (setting [7]) it was 60%; in assay [2] (setting [8]), 80%. In addition, the pest or weed control at 250 g/ha in the assay on Lolium perenne (LOLPE) (setting [9]) came out at 70%; in the assay with Lolium perenne (LOLPE) (setting [10]), 80%.
With `C=C(Cl)CNC(=O)CC1CC(=O)C(c2c(C)cc(C)cc2C)C1=O` (stereo not drawn) [Compound B133], the pest or weed control at 250 g/ha with Avena fatua (AVEFA) (setting [3]) was 60%; with Avena fatua (AVEFA) (setting [4]), 0%; in assay [1] (setting [5]), 50%; in assay [1] (setting [6]), 80%; in assay [2] (setting [7]), 50%; in assay [2] (setting [8]), 80%. The pest or weed control at 250 g/ha was 90% in the assay on Lolium perenne (LOLPE) (setting [9]) and 100% in the assay with Lolium perenne (LOLPE) (setting [10]).
On to `COCC(C)NC(=O)CC1CC(=O)C(c2c(C)cc(Br)cc2C)C1=O` (stereo not drawn) [Compound B134], for which the pest or weed control at 250 g/ha in the assay on Avena fatua (AVEFA) (setting [3]) is 90%; with Avena fatua (AVEFA) (setting [4]), 70%; in assay [1] (setting [5]) it was 80%; in assay [1] (setting [6]) it was 70%; in assay [2] (setting [7]) it was 90%; in assay [2] (setting [8]), 90%. The pest or weed control at 250 g/ha with Lolium perenne (LOLPE) (setting [9]) and in the assay on Lolium perenne (LOLPE) (setting [10]) was 80% each time.
In the case of `CCc1cc(-n2cc(Cl)cn2)cc(C)c1C1C(=O)CC(CC(=O)NC(C)(C)C)C1=O` (stereo not drawn) [Compound B135], the pest or weed control at 250 g/ha in the assay with Avena fatua (AVEFA) (setting [3]) is 100%; with Avena fatua (AVEFA) (setting [4]) it was 90%; in assay [1] (setting [5]), 100%; in assay [1] (setting [6]), 100%; in assay [2] (setting [7]), 100%; in assay [2] (setting [8]), 100%. Further, the pest or weed control at 250 g/ha in the assay on Lolium perenne (LOLPE) (setting [9]) and in the assay with Lolium perenne (LOLPE) (setting [10]) was 100% throughout.
In the case of `C/C=C/c1cc(C)c(C2C(=O)CC(CC(=O)NC(C)(C)C)C2=O)c(CC)c1` (stereo not drawn) [Compound B136], the pest or weed control at 16 g/ha with Avena fatua (AVEFA) (setting [3]) was 100%; with Avena fatua (AVEFA) (setting [4]) it was 100%; in assay [1] (setting [5]), 90%; in assay [1] (setting [6]), 100%; in assay [2] (setting [7]) it was 60%; in assay [2] (setting [8]), 90%. The pest or weed control at 16 g/ha in the assay with Lolium perenne (LOLPE) (setting [9]) is 100%; in the assay with Lolium perenne (LOLPE) (setting [10]) it was 90%.
`C/C=C/c1cc(C)c(C2C(=O)CC(CC(=O)N3CCOCC3)C2=O)c(CC)c1` (stereo not drawn) [Compound B137]: the pest or weed control at 250 g/ha in the assay with Avena fatua (AVEFA) (setting [3]) was 100%; with Avena fatua (AVEFA) (setting [4]) it was 50%; in assay [1] (setting [5]) it was 90%; in assay [1] (setting [6]) it was 60%; in assay [2] (setting [7]), 100%; in assay [2] (setting [8]), 20%. The figures for the pest or weed control at 250 g/ha with Lolium perenne (LOLPE) (setting [9]) and in the assay with Lolium perenne (LOLPE) (setting [10]) were 100% and 50%, respectively.
As for `Cc1cc(C)c(C2C(=O)CC(CC(=O)NC3(C(F)(F)F)CC3)C2=O)c(C)c1` (stereo not drawn) [Compound B138], the pest or weed control at 250 g/ha stood at 70% in the assay on Avena fatua (AVEFA) (setting [3]); 0% with Avena fatua (AVEFA) (setting [4]); 80% in assay [1] (setting [5]); 90% in assay [1] (setting [6]); 90% in assay [2] (setting [7]); 80% in assay [2] (setting [8]). Besides, the pest or weed control at 250 g/ha in the assay on Lolium perenne (LOLPE) (setting [9]) came out at 80%; in the assay on Lolium perenne (LOLPE) (setting [10]), 70%.
Turning to `Cc1cc(OCC(F)(F)F)cc(C)c1C1C(=O)CC(CC(=O)NC(C)(C)C)C1=O` (stereo not drawn) [Compound B139], the pest or weed control at 250 g/ha with Avena fatua (AVEFA) (setting [3]) was 90%; with Avena fatua (AVEFA) (setting [4]), 50%; in assay [1] (setting [5]), 100%; in assay [1] (setting [6]), 100%; in assay [2] (setting [7]) it was 90%; in assay [2] (setting [8]), 60%. For the same compound, the pest or weed control at 250 g/ha came out at 80% with Lolium perenne (LOLPE) (setting [9]) and 90% in the assay on Lolium perenne (LOLPE) (setting [10]).
Turning to `Cc1cc(Br)cc(C)c1C1C(=O)CC(CC(=O)NC(C)C)C1=O` (stereo not drawn) [Compound B140], the pest or weed control at 250 g/ha with Avena fatua (AVEFA) (setting [3]) was 90%; in the assay on Avena fatua (AVEFA) (setting [4]), 80%; in assay [1] (setting [5]), 80%; in assay [1] (setting [6]), 70%; in assay [2] (setting [7]) it was 90%; in assay [2] (setting [8]) it was 90%. Further, the pest or weed control at 250 g/ha in the assay on Lolium perenne (LOLPE) (setting [9]) and in the assay with Lolium perenne (LOLPE) (setting [10]) was 90% throughout.
